Measured values published in the supplement of paper PMC11208160.

Assay: recombinant UMI read abundance after kanamycin selection (control-corrected) (log10(CPM+1)); higher = more efficient recombination; extreme values may be limits of the assay; sequences stand for … in AGTGCAGAGAAAATCGGCCAGTTTTCTCTGCCTGCAGTCCGCATGCCGTGGGACCCCTTGGGTTCTAACCTGTTGCCTAGATTTATGCAGCGGACTGCCTTTCTCCCAAAGTGATAAACCGG…AGGTTGGTTTCACT; site = the 11-nt donor
In short: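 The measure is log10(CPM+1) for recombinant UMIs. These were PCR-amplified across the donor–target junction and sequenced after Escherichia coli carrying a donor and donor-binding-loop pair library and a target plasmid with T7-inducible IS621 bridge recombinase was plated on IPTG (0.07 mM) plus kanamycin or unselected. CPM were averaged over two replicates and scaled by control-derived factors.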
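Further: IS621 bridge recombinase in Escherichia coli cells against a fixed T5 target plasmid.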

Point of comparison: “TACTAGGCATGGACCGGTTTTCCCGGTAATCCGTATTTGGT (site TACTAGGCTAC)”, “recombinant UMI read abundance (log10)” value 0.225. Against it:
- CGGAGGCCATGGACCGGTTTTCCCGGTAATCCGTATTTGTT (site CGGAATCCTAA) — lower, 0.00304
- GCTCGCCCATGGACCGGTTTTCCCGGTAATCCGTATTTGAT (site GCTGGCCCTAT) — lower, 0.019
- CAATCACCATGGACCGGTTTTCCCGGTAATCCGTATTTGCT (site CAATCACCTAG) — lower, 0.00562
- GGCAGTCCATGGACCGGTTTTCCCGGTAATCCGTATTTGAA (site GGCAGTCCTTT) — within 0.2 log units, 0.191
- GAATTGCCATGGACCGGTTTTCCCGGTAATCCGTATTTGCA (site GAATTGCCTTG) — lower, 0
- GACCGTCCATGGACCGGTTTTCCCGGTAATCCGTATTTGAG (site GACCGTCCTCT) — within 0.2 log units, 0.281
- CCTAACACATGGACCGGTTTTCCCGGTAATCCGTATTTGGC (site CCTAAGACTGC) — lower, 0
- CTAATATCATGGACCGGTTTTCCCGGTAATCCGTATTTGAC (site CTAATATCTGT) — higher, 2.69
- GTATGCACATGGACCGGTTTTCCCGGTAATCCGTATTTGTA (site GTATTCACTTA) — higher, 1.3
- TGATAGGCATGGACCGGTTTTCCCGGTAATCCGTATTTGGT (site TGTTAGGCTAC) — lower, 0.02
- CTGCTCTCATGGACCGGTTTTCCCGGTAATCCGTATTTGTA (site CTACTCTCTTA) — higher, 2.71
- ATGGTATCATGGACCGGTTTTCCCGGTAATCCGTATTTGCA (site ATGGTATCTTG) — higher, 3.07
- GAAGTGACATGGACCGGTTTTCCCGGTAATCCGTATTTGCG (site GAAGTGACTCG) — higher, 2.14
- TAGCCTCCATGGACCGGTTTTCCCGGTAATCCGTATTTGGT (site TAGCCTACTAC) — lower, 0.0161
- AAATATACATGGACCGGTTTTCCCGGTAATCCGTATTTGAC (site AAATATACTGT) — higher, 2.52
- CAAGCACCATGGACCGGTTTTCCCGGTAATCCGTATTTGCT (site CAAGCATCTAG) — lower, 0.0059
- CTGAATCCATGGACCGGTTTTCCCGGTAATCCGTATTTGTG (site CTGAATCCTCA) — higher, 0.684
- TAACTACCATGGACCGGTTTTCCCGGTAATCCGTATTTGTT (site TAACTACCTAA) — lower, 0.00587
- GGATAGACATGGACCGGTTTTCCCGGTAATCCGTATTTGCC (site GAATAGACTGG) — higher, 1.5
- TCTGAGACATGGACCGGTTTTCCCGGTAATCCGTATTTGCG (site TCTGAGACTCG) — higher, 0.476
- GAGCCGGCATGGACCGGTTTTCCCGGTAATCCGTATTTGGT (site GAGCCGGCTAC) — higher, 0.57
- AAGCACGCATGGACCGGTTTTCCCGGTAATCCGTATTTGGG (site AAACACGCTCC) — lower, 0.00685
- GCCACGCCATGGACCGGTTTTCCCGGTAATCCGTATTTGTA (site GCAACGCCTTA) — lower, 0
- CTATTATCATGGACCGGTTTTCCCGGTAATCCGTATTTGGC (site CTATTATCTGC) — higher, 2.56
- TAGGAATCATGGACCGGTTTTCCCGGTAATCCGTATTTGCG (site TAGAAATCTCG) — higher, 2.39
- CGTTGGACATGGACCGGTTTTCCCGGTAATCCGTATTTGAG (site CGTTTGACTCT) — within 0.2 log units, 0.0464
- TAATGGCCATGGACCGGTTTTCCCGGTAATCCGTATTTGCA (site GAATGGCCTTG) — lower, 0.00525
- TGGCCGGCATGGACCGGTTTTCCCGGTAATCCGTATTTGGC (site TGGCCCGCTGC) — lower, 0
- GGCTCGTCATGGACCGGTTTTCCCGGTAATCCGTATTTGCA (site GGCTCGTCTTG) — higher, 2.16
- GATCGAGCATGGACCGGTTTTCCCGGTAATCCGTATTTGCA (site GATCGAGCTTG) — higher, 1.04
- GGCCAGCCATGGACCGGTTTTCCCGGTAATCCGTATTTGTT (site GGCCAGCCTAA) — lower, 0.00292
- GCAGTCGCATGGACCGGTTTTCCCGGTAATCCGTATTTGCG (site GGAGTCGCTCG) — lower, 0.00641
- TAAGGGCCATGGACCGGTTTTCCCGGTAATCCGTATTTGAG (site TAAGGGCCTCT) — within 0.2 log units, 0.221
- AAGCACGCATGGACCGGTTTTCCCGGTAATCCGTATTTGGG (site AAGCAGGCTCC) — lower, 0.0132
- GGAGAGACATGGACCGGTTTTCCCGGTAATCCGTATTTGCC (site GGAGAGACTGG) — lower, 0
- AAGAAGACATGGACCGGTTTTCCCGGTAATCCGTATTTGCC (site AGGAAGACTTG) — lower, 0.0155
- CCTAAAGCATGGACCGGTTTTCCCGGTAATCCGTATTTGTT (site CCTAAAGCTAC) — lower, 0
- CTACTAACATGGACCGGTTTTCCCGGTAATCCGTATTTGTA (site CTACTAACTTC) — higher, 0.53
- TCACGAGCATGGACCGGTTTTCCCGGTAATCCGTATTTGAA (site TCACGAGCTTT) — higher, 1.23
- CCCTAGCCATGGACCGGTTTTCCCGGTAATCCGTATTTGAC (site CCCTAGCCTGG) — lower, 0
- CCACGAACATGGACCGGTTTTCCCGGTAATCCGTATTTGCA (site CCACGAACTTG) — lower, 0
- GCTACTTCATGGACCGGTTTTCCCGGTAATCCGTATTTGCC (site GCTACTACTGG) — lower, 0
- AGCTCTGCATGGACCGGTTTTCCCGGTAATCCGTATTTGGG (site AGCTCCGCTCC) — lower, 0.0101
- ACACCATCATGGACCGGTTTTCCCGGTAATCCGTATTTGAG (site ACACCATCTCT) — higher, 1.25
- GAATATCCATGGACCGGTTTTCCCGGTAATCCGTATTTGCT (site GACTATCCTAG) — lower, 0
- TCAAGTCCATGGACCGGTTTTCCCGGTAATCCGTATTTGTA (site TGAAGTCCTTA) — within 0.2 log units, 0.226
- GGGAATGCATGGACCGGTTTTCCCGGTAATCCGTATTTGGT (site GGGAATGCTAC) — higher, 0.885
- CACCGCCCATGGACCGGTTTTCCCGGTAATCCGTATTTGTT (site CACTGCCCTAA) — lower, 0.0163
- GTCCCATCATGGACCGGTTTTCCCGGTAATCCGTATTTGCG (site GTCCCATCTCG) — higher, 1.31
- GTTTGGACATGGACCGGTTTTCCCGGTAATCCGTATTTGGA (site GTTTGGACTTC) — lower, 0.0184
- GATATGCCATGGACCGGTTTTCCCGGTAATCCGTATTTGCT (site GATATGCCTAG) — lower, 0
- AGAAAGACATGGACCGGTTTTCCCGGTAATCCGTATTTGCG (site AGAAAGACTCG) — higher, 2.63
- GATCGACCATGGACCGGTTTTCCCGGTAATCCGTATTTGTC (site GATCGACCTGA) — lower, 0
- GTGCATGCATGGACCGGTTTTCCCGGTAATCCGTATTTGGT (site GTGCATCCTAC) — within 0.2 log units, 0.318
- CTGATACCATGGACCGGTTTTCCCGGTAATCCGTATTTGCT (site CTGGTACCTAG) — lower, 0
- TGTCCGGCATGGACCGGTTTTCCCGGTAATCCGTATTTGGC (site TGACCGGCTGC) — lower, 0
- TGTTACCCATGGACCGGTTTTCCCGGTAATCCGTATTTGTA (site TGTTCCCCTTA) — lower, 0.0074
- AATGACTCATGGACCGGTTTTCCCGGTAATCCGTATTTGAG (site AATGACTCTCT) — higher, 2.08
- GGGACTCCATGGACCGGTTTTCCCGGTAATCCGTATTTGCG (site GGGACTCCTCG) — higher, 0.509
- CCGTCAACATGGACCGGTTTTCCCGGTAATCCGTATTTGCT (site CCGTCAACTAG) — lower, 0
- GACACGACATGGACCGGTTTTCCCGGTAATCCGTATTTGGG (site GACACGACTCC) — within 0.2 log units, 0.173
- CTAGTAACATGGACCGGTTTTCCCGGTAATCCGTATTTGAG (site CTAGTATCTGT) — lower, 0
- ATGTAGGCATGGACCGGTTTTCCCGGTAATCCGTATTTGGC (site ATGTACGCTGC) — higher, 0.834
- TGTGCGGCATGGACCGGTTTTCCCGGTAATCCGTATTTGCT (site TTTGCGGCTAG) — lower, 0.00385
- TGTTCCCCATGGACCGGTTTTCCCGGTAATCCGTATTTGCA (site TGTTCCCCTTA) — lower, 0.0177
- TGTTCCCCATGGACCGGTTTTCCCGGTAATCCGTATTTGTA (site TGCTCCCCTTA) — within 0.2 log units, 0.377
- GGCAATCCATGGACCGGTTTTCCCGGTAATCCGTATTTGCA (site GGCAATCCTTT) — lower, 0.0136
- TGCTAGGCATGGACCGGTTTTCCCGGTAATCCGTATTTGGT (site TGCTAGGCTCC) — lower, 0.0152
- CTACCAACATGGACCGGTTTTCCCGGTAATCCGTATTTGGA (site CTACCAACTTC) — higher, 0.959
- GCTTTAGCATGGACCGGTTTTCCCGGTAATCCGTATTTGTT (site GCTTTAGCTAA) — lower, 0.00318
- CCAATATCATGGACCGGTTTTCCCGGTAATCCGTATTTGTC (site CCGATATCTGA) — lower, 0
- GGACTGGCATGGACCGGTTTTCCCGGTAATCCGTATTTGGT (site GGAATGGCTAC) — lower, 0.00409
- TATGAATCATGGACCGGTTTTCCCGGTAATCCGTATTTGCG (site TATGAATCTCG) — higher, 2.18
- CCCCACACATGGACCGGTTTTCCCGGTAATCCGTATTTGCA (site CCCCACACTTA) — lower, 0.0196
